ChEMBL document CHEMBL1201862, “PubChem BioAssay data set” (2004)
Active and inactive are the calls of the source.

How the values were obtained:
[1] = target: T1, Tyrosine-protein phosphatase non-receptor type 7 (Homo sapiens, UniProt P35236); assay type: functional
T1 sequence (P35236 whole entry): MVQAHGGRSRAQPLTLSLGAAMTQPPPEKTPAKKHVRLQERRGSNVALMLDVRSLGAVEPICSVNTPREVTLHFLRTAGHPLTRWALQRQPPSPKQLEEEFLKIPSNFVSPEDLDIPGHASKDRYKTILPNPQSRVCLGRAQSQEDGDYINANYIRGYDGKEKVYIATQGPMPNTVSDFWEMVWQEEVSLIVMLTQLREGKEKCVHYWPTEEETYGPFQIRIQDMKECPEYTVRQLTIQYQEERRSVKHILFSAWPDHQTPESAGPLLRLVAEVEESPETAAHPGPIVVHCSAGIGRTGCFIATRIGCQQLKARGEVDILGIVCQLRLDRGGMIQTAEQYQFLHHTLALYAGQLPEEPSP

[2] = target: T2, Tyrosine-protein phosphatase non-receptor type 22 (Homo sapiens, UniProt Q9Y2R2); assay type: functional
T2 sequence (Q9Y2R2 whole entry): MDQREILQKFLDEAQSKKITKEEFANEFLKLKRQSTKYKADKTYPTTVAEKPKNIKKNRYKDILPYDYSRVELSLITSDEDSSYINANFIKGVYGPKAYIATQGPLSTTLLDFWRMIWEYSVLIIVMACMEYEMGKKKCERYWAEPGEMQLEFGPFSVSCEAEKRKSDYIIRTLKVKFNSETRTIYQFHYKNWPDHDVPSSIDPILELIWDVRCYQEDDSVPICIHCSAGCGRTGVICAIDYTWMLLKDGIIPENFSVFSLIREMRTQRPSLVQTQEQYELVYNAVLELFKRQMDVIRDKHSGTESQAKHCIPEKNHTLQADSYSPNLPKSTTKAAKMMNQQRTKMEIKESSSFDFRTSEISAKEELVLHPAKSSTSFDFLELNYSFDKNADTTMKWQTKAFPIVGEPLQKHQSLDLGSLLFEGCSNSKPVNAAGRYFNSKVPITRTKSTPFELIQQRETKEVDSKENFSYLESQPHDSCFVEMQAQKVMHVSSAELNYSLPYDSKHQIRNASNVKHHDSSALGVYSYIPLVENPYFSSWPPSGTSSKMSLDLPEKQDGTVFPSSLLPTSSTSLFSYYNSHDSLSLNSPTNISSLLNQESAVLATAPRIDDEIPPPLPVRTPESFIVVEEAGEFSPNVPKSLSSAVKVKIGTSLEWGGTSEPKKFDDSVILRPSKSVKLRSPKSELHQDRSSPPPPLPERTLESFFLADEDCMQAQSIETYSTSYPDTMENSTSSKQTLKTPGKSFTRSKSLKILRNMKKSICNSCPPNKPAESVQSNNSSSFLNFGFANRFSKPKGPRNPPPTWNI

[3] = target: T2, Tyrosine-protein phosphatase non-receptor type 22; assay type: functional; remark: listed apart in the source
Cytochrome P450 2D6 = Cytochrome P450 2D6 (Homo sapiens, UniProt P10635);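 also: CYP2D6 member of a cytochrome P450 panel assay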
Sequence of Cytochrome P450 2D6 (P10635 whole entry): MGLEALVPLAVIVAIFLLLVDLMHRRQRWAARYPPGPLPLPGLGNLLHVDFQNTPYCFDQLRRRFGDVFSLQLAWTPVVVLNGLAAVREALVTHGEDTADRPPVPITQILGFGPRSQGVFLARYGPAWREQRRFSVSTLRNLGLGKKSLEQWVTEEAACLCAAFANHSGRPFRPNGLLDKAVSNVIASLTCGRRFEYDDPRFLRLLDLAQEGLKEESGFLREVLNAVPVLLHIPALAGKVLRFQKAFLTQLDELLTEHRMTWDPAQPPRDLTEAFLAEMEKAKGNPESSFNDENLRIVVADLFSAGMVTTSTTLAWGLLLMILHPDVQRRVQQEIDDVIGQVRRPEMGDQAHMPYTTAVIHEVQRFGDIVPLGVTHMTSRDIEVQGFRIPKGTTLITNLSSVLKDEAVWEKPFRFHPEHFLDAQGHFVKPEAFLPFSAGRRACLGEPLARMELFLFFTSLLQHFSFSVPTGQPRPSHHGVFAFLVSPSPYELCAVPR

Cytochrome P450 2C19 = Cytochrome P450 2C19 (Homo sapiens, UniProt P33261); assay: Cytochrome panel assay with activity outcomes. Panel member name: p450-cyp2c19 Compounds with AC50 equal or less than 10 uM are considered active; assay type: functional
Sequence of Cytochrome P450 2C19 (P33261 whole entry): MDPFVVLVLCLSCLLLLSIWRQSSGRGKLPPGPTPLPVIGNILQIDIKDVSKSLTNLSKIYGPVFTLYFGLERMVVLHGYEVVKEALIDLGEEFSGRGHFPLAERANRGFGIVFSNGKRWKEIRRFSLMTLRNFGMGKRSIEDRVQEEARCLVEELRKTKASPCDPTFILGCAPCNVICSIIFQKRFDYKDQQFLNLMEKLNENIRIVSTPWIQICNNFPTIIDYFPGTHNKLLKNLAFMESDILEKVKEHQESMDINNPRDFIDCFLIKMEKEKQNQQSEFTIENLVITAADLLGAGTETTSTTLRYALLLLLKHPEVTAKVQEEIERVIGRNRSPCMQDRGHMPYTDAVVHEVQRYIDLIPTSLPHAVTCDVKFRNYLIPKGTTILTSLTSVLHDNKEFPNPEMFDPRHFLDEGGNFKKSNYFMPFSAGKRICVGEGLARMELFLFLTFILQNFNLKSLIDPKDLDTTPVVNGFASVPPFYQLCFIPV

[4] = target: T3, Alkaline phosphatase, tissue-nonspecific isozyme (Homo sapiens, UniProt P05186); assay: activation of tissue-nonspecific alkaline phosphatase – biochemical, TNAP isozyme, mouse IAP uHTS hits, selectivity assay for mouse IAP activator project, dose response (AID 488880); assay type: functional
T3 sequence (P05186 whole entry): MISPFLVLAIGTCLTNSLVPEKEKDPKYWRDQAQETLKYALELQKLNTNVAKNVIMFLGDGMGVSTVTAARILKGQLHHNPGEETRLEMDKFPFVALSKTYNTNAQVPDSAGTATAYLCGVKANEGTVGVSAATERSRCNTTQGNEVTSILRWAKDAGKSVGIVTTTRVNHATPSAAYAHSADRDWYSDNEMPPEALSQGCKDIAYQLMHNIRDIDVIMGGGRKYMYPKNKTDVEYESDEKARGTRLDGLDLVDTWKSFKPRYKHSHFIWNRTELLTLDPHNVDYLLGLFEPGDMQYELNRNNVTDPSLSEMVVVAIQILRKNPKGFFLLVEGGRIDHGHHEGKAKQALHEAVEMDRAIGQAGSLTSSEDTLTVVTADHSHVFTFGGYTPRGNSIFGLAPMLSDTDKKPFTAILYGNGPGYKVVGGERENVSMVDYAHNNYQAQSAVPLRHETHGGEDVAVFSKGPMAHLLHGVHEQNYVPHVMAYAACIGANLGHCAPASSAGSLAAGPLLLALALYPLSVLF

[5] = target: Intestinal-type alkaline phosphatase (Homo sapiens, UniProt P09923); assay: activation of human intestinal alkaline phosphatase – biochemical, dose response (AID 488873); assay type: functional
Sequence of Intestinal-type alkaline phosphatase (Homo sapiens, UniProt P09923) (P09923 whole entry): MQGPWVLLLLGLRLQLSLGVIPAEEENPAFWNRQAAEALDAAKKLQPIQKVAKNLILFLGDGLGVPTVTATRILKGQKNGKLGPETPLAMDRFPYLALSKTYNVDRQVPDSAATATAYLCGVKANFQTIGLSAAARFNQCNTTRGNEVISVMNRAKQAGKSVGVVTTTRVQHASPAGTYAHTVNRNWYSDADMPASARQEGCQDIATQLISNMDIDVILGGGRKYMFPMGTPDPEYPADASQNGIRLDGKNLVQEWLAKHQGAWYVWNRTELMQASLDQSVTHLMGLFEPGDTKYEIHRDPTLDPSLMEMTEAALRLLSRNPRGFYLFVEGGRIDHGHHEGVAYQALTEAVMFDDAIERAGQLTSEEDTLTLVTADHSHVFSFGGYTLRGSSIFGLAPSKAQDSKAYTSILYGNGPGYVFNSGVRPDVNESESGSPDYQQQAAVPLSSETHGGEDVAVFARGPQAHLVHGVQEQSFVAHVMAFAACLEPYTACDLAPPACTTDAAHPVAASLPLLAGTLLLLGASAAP

[6] = fluconazole-exposed Candida albicans growth modulators – fluorescence, retest, confirmation (AID 2467); assay type: functional, cell-based
[7] = target: T4, Histone-lysine N-methyltransferase NSD2 (Homo sapiens, UniProt O96028); assay type: biochemical
T4 sequence (O96028 whole entry): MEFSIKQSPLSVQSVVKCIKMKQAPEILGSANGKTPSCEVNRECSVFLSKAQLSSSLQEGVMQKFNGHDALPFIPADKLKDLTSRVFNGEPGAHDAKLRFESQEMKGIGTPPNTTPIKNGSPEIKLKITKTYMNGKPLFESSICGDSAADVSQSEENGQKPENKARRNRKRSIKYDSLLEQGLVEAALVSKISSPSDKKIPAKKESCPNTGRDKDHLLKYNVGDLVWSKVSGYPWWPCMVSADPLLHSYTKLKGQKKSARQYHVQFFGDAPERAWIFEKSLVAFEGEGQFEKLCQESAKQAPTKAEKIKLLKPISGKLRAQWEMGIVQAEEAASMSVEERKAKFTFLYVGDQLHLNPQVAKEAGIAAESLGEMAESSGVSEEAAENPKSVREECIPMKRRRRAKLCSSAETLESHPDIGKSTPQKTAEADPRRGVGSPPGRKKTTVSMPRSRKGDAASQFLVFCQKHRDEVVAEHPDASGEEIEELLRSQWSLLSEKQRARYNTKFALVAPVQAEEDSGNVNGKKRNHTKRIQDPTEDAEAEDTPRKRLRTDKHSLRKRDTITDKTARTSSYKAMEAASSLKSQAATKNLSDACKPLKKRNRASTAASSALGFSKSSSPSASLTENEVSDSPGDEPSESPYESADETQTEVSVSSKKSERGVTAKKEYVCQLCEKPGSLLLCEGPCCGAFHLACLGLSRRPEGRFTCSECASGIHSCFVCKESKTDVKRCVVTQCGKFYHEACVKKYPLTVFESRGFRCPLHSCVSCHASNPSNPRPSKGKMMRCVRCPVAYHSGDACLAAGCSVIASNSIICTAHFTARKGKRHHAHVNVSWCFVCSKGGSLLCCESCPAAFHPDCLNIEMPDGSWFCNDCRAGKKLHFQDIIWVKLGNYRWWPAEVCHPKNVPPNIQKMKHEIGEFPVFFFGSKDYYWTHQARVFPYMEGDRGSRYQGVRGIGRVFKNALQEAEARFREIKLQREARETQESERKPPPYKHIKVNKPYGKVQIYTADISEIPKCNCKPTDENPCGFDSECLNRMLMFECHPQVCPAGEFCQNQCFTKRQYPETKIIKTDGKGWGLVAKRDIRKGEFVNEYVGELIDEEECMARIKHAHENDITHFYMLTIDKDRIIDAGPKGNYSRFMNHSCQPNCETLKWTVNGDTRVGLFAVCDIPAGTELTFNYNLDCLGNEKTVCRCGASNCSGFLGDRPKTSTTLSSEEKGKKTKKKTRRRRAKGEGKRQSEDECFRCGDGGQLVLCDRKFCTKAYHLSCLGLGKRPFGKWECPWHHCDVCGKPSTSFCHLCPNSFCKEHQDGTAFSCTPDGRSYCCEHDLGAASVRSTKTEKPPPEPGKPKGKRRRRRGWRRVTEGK

Caspase-6 = target: T5, Caspase-6 (Homo sapiens, UniProt P55212); assay: inhibition of CASP6 peptide cleavage – biochemical, VEID-R110 fluorescence, cherry-pick, dose response (AID 720632)
T5 sequence (P55212 whole entry): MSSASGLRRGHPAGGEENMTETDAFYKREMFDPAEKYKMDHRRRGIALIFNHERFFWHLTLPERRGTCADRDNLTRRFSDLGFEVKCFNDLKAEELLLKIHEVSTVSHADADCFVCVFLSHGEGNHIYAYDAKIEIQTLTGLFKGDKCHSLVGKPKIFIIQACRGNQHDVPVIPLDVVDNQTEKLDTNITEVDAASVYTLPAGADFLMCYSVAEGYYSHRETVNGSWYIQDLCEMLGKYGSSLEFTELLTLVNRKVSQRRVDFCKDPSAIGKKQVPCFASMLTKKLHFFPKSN

[8] = target: Intestinal-type alkaline phosphatase (Mus musculus, UniProt P24822); assay: mouse intestinal alkaline phosphatase activators, dose response, biochemical, luminescence, uHTS hits (AID 488783); assay type: functional
Sequence of Intestinal-type alkaline phosphatase (Mus musculus, UniProt P24822) (P24822 whole entry): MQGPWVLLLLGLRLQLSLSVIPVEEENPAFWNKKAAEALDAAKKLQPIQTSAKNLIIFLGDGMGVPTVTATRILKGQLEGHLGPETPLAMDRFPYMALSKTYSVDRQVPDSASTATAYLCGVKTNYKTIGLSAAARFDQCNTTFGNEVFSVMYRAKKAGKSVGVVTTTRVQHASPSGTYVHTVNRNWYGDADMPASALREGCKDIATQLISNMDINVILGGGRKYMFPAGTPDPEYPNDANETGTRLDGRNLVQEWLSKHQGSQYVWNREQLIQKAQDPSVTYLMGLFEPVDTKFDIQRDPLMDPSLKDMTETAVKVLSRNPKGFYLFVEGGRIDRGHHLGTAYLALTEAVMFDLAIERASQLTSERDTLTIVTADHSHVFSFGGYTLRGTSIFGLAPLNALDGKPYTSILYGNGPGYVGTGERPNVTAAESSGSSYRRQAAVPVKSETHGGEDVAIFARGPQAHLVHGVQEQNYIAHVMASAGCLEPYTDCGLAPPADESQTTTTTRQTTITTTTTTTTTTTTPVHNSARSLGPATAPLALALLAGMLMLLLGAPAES

[9] = NIH-3T3 fibroblast cytotoxicity, dose response, cytotoxicity control, cell-based, fluorescence, Alamar Blue, secondary assay (AID 2327); assay type: functional;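 also: NIH-3T3 mouse fibroblasts cultured with fluconazole at 8 µg/mL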
cells = assay type: functional
[10] = Vero E6 cell cytotoxicity, dose response, cytotoxicity control for non-replicating M. tuberculosis project, secondary assay (AID 492998); assay type: functional, VeroE6; conditions: Vero C1008
[11] = test system: Streptococcus sp. 'group A'; assay: Streptococcus pyogenes SK(-)GAS viability under kanamycin – luminescence, BacTiterGlo, confirmation, counter-screen for streptokinase expression inhibitor project, dose response (AID 1900); assay type: functional, organism-based
[12] = target: T6, Short transient receptor potential channel 4 (Mus musculus, UniProt Q9QUQ5); assay: calcium entry via TRPC4 opening agents – cell-based, HEK293 TRPC4/mu-opioid, Fluo-4 calcium, dose response (AID 434937); assay type: functional
T6 sequence (Q9QUQ5 whole entry): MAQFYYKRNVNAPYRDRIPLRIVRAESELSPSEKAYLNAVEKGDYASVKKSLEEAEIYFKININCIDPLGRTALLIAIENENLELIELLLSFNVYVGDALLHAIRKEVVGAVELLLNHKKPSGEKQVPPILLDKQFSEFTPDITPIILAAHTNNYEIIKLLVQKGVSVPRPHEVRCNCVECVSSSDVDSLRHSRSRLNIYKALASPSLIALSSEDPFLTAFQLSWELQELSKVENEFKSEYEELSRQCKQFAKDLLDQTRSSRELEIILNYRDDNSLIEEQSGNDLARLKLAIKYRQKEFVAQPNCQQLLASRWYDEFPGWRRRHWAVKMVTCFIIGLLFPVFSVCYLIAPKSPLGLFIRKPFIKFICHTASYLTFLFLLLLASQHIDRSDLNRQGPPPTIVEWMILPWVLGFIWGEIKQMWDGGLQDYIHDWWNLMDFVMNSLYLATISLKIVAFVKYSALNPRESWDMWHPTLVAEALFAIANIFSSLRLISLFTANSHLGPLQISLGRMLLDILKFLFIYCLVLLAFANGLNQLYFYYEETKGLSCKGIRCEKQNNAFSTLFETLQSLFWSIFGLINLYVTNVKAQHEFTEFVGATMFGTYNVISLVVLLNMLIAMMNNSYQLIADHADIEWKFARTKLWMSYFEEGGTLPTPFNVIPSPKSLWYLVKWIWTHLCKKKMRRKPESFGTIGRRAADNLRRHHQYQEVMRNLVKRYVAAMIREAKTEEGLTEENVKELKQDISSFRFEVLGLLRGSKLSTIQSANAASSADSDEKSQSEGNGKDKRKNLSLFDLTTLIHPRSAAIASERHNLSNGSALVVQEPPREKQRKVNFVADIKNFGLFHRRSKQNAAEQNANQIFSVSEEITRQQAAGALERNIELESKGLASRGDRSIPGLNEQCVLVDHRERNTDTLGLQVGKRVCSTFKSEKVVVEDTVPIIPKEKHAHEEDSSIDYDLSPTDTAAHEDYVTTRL

[13] = THP-1 cell cytotoxicity, dose response, cytotoxicity control for non-replicating M. tuberculosis project (AID 489025); assay type: functional
Streptococcus = assay: GAS UMAA2166 growth inhibition – luminescence, BacTiterGlo, counter-screen for streptokinase expression inhibitor project, dose response (AID 1915); assay type: functional, organism-based;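 also: potency for reduction of bacterial viability or growth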

CC(=O)Nc1ccc(SCC(=O)Nc2ccc(Cl)cn2)cc1
inactive: IC50 [1] > 79.4 µM | IC50 [2] > 79.4 µM | IC50 [3] > 79.4 µM

Cc1ccc(OCC(=O)N/N=C\c2ccco2)c(C)c1
inactive: IC50 [1] > 79.4 µM | IC50 [2] > 79.4 µM | IC50 [3] > 79.4 µM

O=C(O)c1cc(/N=N\c2ccc([As](=O)(O)O)cc2)ccc1O
inconclusive: AC50 (Cytochrome P450 2D6) | AC50 (Cytochrome P450 2C19)

NNC(=O)c1cc(O)c(O)c(O)c1
> 38 µM (not active): EC50 [6]
active: EC50 [4] 69.3 µM | EC50 [5] 82.6 µM | AC50 [7] 5.41 µM | AC50 (Caspase-6) 2.43 µM | EC50 [8] 8.04 µM | EC50 [9] 41.7 µM

Cc1ccc(C(=O)NNC(=S)NC(=O)c2ccc(Cl)cc2)cc1
inconclusive: AC50 (Cytochrome P450 2D6) | AC50 (Cytochrome P450 2C19; read-out: AC50) 35.5 µM
active: IC50 (cells) < 0.1 µM | CC50 [10] 17 µM | EC50 [11] 0.182 µM | EC50 [12] 2.11 µM | CC50 [13] 22.9 µM | EC50 (Streptococcus) 3.71 µM
